Experimental findings from patent US9758538B2, “Pyrimidine derivatives” (PFIZER INC., priority 2015, dated 2017) are described below.

Sequence of truncated PI3Kα (p110α/iSH2 p85α), PI3KA_Act (P42336 whole entry, the tested form may be a part): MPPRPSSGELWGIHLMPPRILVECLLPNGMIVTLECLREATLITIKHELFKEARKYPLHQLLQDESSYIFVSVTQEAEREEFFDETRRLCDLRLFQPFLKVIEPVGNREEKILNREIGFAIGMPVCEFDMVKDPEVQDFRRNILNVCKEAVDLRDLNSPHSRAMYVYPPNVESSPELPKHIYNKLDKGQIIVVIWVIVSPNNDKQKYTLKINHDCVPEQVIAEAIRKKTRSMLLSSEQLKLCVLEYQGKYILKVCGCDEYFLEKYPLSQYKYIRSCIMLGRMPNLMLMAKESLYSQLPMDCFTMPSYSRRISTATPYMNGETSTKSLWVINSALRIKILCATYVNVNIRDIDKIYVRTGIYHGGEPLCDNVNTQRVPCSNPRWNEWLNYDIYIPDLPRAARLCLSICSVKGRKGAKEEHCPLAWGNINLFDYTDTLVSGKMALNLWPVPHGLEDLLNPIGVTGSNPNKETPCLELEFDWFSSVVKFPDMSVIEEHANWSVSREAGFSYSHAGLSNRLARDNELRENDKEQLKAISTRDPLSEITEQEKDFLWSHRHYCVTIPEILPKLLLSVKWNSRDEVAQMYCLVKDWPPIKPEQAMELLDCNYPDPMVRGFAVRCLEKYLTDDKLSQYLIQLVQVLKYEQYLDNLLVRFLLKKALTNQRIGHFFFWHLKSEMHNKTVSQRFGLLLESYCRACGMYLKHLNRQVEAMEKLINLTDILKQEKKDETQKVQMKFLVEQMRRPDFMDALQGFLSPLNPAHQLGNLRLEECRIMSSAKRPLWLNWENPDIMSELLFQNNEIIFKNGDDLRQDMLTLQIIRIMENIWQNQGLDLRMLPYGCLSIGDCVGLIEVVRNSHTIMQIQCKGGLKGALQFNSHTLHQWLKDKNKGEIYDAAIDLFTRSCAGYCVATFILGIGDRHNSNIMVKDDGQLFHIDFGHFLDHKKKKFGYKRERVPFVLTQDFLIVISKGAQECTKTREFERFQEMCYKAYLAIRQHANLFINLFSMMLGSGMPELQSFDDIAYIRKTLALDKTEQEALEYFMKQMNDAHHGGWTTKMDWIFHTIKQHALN

The assay has as its target truncated PI3Kα (p110α/iSH2 p85α), PI3KA_Act (Homo sapiens (Human), UniProt P42336). The assay is described as follows: PI3Kα biochemical kinase assay, fluorescence polarization format (PI3KA_Act). To be noted: 0.5 nM p110α/iSH2 p85, 1 mM ATP, 30 μM PIP2, 15-min preincubation; Morrison equation fit; read-out: PI3KA_Act Ki. Here is the method:
Enzyme Production for Biochemical Assay: p110α-iSH2 p85α Complex (Full Length p110α and p85α iSH2)(“PI3KA Act”)
Gene encoding p110α subunit was subcloned into polyhedrine promoter while gene encoding p85α niSH2 domains was subcloned into p10 promoter. […] Recombinant baculovirus was generated using Bac-to-Bac protocol (Life Technologies, Carlsbad, Calif.). Large scale expression was conducted in Sf21 (Life Technologies, Carlsbad, Calif.) cells at a multiplicity of infection (“MOI”)=1 for 48 hours. Cells were lyzed in 50 mM Tris pH 8.0, 250 mM NaCl, 5% glycerol, 0.25 mM TCEP, and 20 mM imidazole. The p110α-niSH2 p85α complex was purified from clarified supernatant using Immobilized Metalo Affinity Chromatography (“IMAC”). The protein was eluted from the column using 50 mM Tris pH 8.0, 200 mM NaCl, 0.25 mM TCEP, and 200 mM imidazole. Following elution p110α-niSH2 p85α complex was dialyzed against 4 liters of 50 mM Tris pH 8.0, 200 mM NaCl, 0.25 mM TCEP, and 40 mM imidazole in the presence of PreScission Protease (1:70 molar ratio of Protease to Protein) and TEV protease (1:40 molar ratio protease to protein) for 16 hours at 4° C. The protein was further purified using reverse IMAC to remove cleaved histidine tag and contaminants captured during initial IMAC purification. The mixture of p110α-iSH2 p85α complex and cleaved nSH2 was recovered in reverse IMAC 40 mM imidazole flow through and 60 mM imidazole wash fractions. Those fractions were pulled together and loaded on Superdex 200 26/60 SEC column equilibrated in 25 mM Tris, pH 8.0, 100 mM NaCl, 2% glycerol, and 2 mM TCEP.
The enzymatic reactions were conducted in 50 μL volumes in 96-well plates. […] The reactions were incubated for 30 min at room temperature, stopped with EDTA pH 8 (10 mM final concentration). […] The plate was shaken for 30 minutes and fluorescence polarization values were measured on an LJL Analyst HT plate reader (Molecular Devices, Sunnyvale, Calif.).
(Fluorescence polarisation rises when a labelled molecule tumbles more slowly, as on binding a larger partner.)
In general, Ki refers to the dissociation constant of the complex between target and ligand, obtained from inhibition or displacement. For `COC(=O)N1CCC[C@@](CO)(Nc2cc(-c3cnc(N)nc3)nc(N3CCOCC3)n2)C1` [Example 6, methyl (3R)-3-{[2′-amino-2-(morpholin-4-yl)-4,5′-bipyrimidin-6-yl]amino}-3-(hydroxymethyl)piperidine-1-carboxylate], the Ki came to 0.881 nM.
Next, `C[C@H]1COCCN1c1nc(N[C@@]2(CO)CCN(C(=O)C3COC3)C2)cc(-c2cnc(N)nc2)n1` [Example 104, [(3S)-3-({2′-amino-2-[(3S)-3-methylmorpholin-4-yl]-4,5′-bipyrimidin-6-yl}amino)-3-(hydroxymethyl)pyrrolidin-1-yl](oxetan-3-yl)methanone]: 0.674 nM; `CC[C@@]1(Nc2cc(-c3cnc(N)nc3)nc(N3CCOCC3)n2)CCN(C(=O)OC(C)(C)C)C1` [Example 37, tert-butyl (3R)-3-{[2′-amino-2-(morpholin-4-yl)-4,5′-bipyrimidin-6-yl]amino}-3-ethylpyrrolidine-1-carboxylate]: 0.725 nM; `CCC(=O)N1CCC[C@](CO)(Nc2nc(N3CCOCC3)nc(-c3cnc(N)nc3)c2F)C1` [Example 146, 1-[(3S)-3-{[2′-amino-5-fluoro-2-(morpholin-4-yl)-4,5′-bipyrimidin-6-yl]amino}-3-(hydroxymethyl)piperidin-1-yl]propan-1-one]: 0.237 nM.
On to `CC(C)(C)OC(=O)N1CCC(CO)(Oc2cc(-c3cnc(N)nc3)nc(N3CCOCC3)n2)C1` (single isomer, unassigned) [Example 9, tert-butyl 3-{[2′-amino-2-(morpholin-4-yl)-4,5′-bipyrimidin-6-yl]oxy}-3-(hydroxymethyl)pyrrolidine-1-carboxylate], for which the Ki was 0.492 nM.
Next, `COC(=O)N1CC[C@](CO)(Nc2nc(-c3cnc(N)nc3)nc(N3CCOCC3)n2)C1` [Example 11, methyl (3S)-3-{[4-(2-aminopyrimidin-5-yl)-6-(morpholin-4-yl)-1,3,5-triazin-2-yl]amino}-3-(hydroxymethyl)pyrrolidine-1-carboxylate]: 0.103 nM.
In the case of `CCC1(Nc2cc(-c3cnc(N)nc3)nc(N3CCOCC3)n2)CCN(C(=O)OC(C)(C)C)C1` (centres unmarked) [Example 28, tert-butyl 3-{[2′-amino-2-(morpholin-4-yl)-4,5′-bipyrimidin-6-yl]amino}-3-ethylpyrrolidine-1-carboxylate], the Ki amounted to 0.201 nM.
With `Nc1ncc(-c2nc(N3CCOCC3)nc(N[C@@]3(CO)CCCNC3)c2F)cn1` [Example 145, [(3S)-3-{[2′-amino-5-fluoro-2-(morpholin-4-yl)-4,5′-bipyrimidin-6-yl]amino}piperidin-3-yl]methanol] the figure was 2.53 nM.
For the molecule `C[C@H]1COCCN1c1nc(N[C@]2(C)CCN(C(=O)OC(C)(C)C)C2)cc(-c2cnc(N)nc2)n1` [Example 15, tert-butyl (3R)-3-({2′-amino-2-[(3S)-3-methylmorpholin-4-yl]-4,5′-bipyrimidin-6-yl}amino)-3-methylpyrrolidine-1-carboxylate], the Ki is 0.979 nM.
With `Nc1ncc(-c2nc(N3CCOCC3)nc(N[C@@]3(CO)CCNC3)c2F)cn1` [Example 137, [(3S)-3-{[2′-amino-5-fluoro-2-(morpholin-4-yl)-4,5′-bipyrimidin-6-yl]amino}pyrrolidin-3-yl]methanol] the figure was 48.7 nM; with `C[C@H]1COCCN1c1nc(N[C@@]2(CF)CCN(C(=O)OC(C)(C)C)C2)cc(-c2cnc(N)nc2)n1` [Example 124, tert-butyl (3S)-3-({2′-amino-2-[(3S)-3-methylmorpholin-4-yl]-4,5′-bipyrimidin-6-yl}amino)-3-(fluoromethyl)pyrrolidine-1-carboxylate], 0.046 nM.
With `Nc1ncc(-c2cc(N[C@@]3(CO)CCN(C(=O)N4CCCC4)C3)nc(N3CCOCC3)n2)cn1` [Example 78, [(3S)-3-{[2′-amino-2-(morpholin-4-yl)-4,5′-bipyrimidin-6-yl]amino}-3-(hydroxymethyl)pyrrolidin-1-yl](pyrrolidin-1-yl)methanone] the figure was 0.267 nM; with `CN(c1cc(-c2cnc(N)nc2)nc(N2CCOCC2)n1)C1(CO)CCN(C(=O)OC(C)(C)C)C1` (centres unmarked) [Example 25, tert-butyl 3-{[2′-amino-2-(morpholin-4-yl)-4,5′-bipyrimidin-6-yl](methyl)amino}-3-(hydroxymethyl)pyrrolidine-1-carboxylate], 0.049 nM.
Next, `Nc1ncc(-c2nc(N3CCOCC3)nc(N[C@@]3(CO)CCN(C(=O)C4(F)CCC4)C3)c2F)cn1` [Example 115, [(3S)-3-{[2′-amino-5-fluoro-2-(morpholin-4-yl)-4,5′-bipyrimidin-6-yl]amino}-3-(hydroxymethyl)pyrrolidin-1-yl](1-fluorocyclobutyl)methanone]: 0.036 nM; `Nc1ncc(-c2cc(N[C@@]3(CO)CCN(C(=O)OC4CC4)C3)nc(N3CCOCC3)n2)cn1` [Example 93, cyclopropyl (3S)-3-{[2′-amino-2-(morpholin-4-yl)-4,5′-bipyrimidin-6-yl]amino}-3-(hydroxymethyl)pyrrolidine-1-carboxylate]: below 0.018 nM.
Turning to `CC(C)(C)OC(=O)N1CCCC(CO)(Nc2cc(-c3cnc(N)nc3)nc(N3CCOCC3)n2)C1` (centres unmarked) [Example 123, tert-butyl 3-{[2′-amino-2-(morpholin-4-yl)-4,5′-bipyrimidin-6-yl]amino}-3-(hydroxymethyl)piperidine-1-carboxylate], the inhibition constant (Ki) is 1.7 nM.
For the molecule `Cc1ncc(-c2cc(N[C@@]3(CO)CCN(C(=O)OC(C)(C)C)C3)nc(N3CCOCC3)n2)cc1F` [Example 127, tert-butyl (3S)-3-{[6-(5-fluoro-6-methylpyridin-3-yl)-2-(morpholin-4-yl)pyrimidin-4-yl]amino}-3-(hydroxymethyl)pyrrolidine-1-carboxylate], the Ki worked out at 19 nM.
Next, `CC(=O)N1CC[C@@](CO)(Nc2cc(-c3cnc(N)nc3)nc(N3CCOCC3)n2)C1` [Example 31, 1-[(3R)-3-{[2′-amino-2-(morpholin-4-yl)-4,5′-bipyrimidin-6-yl]amino}-3-(hydroxymethyl)pyrrolidin-1-yl]ethanone]: 2.13 nM.
For the molecule `CC(C)OC(=O)N1CC[C@](CO)(Nc2cc(-c3cnc(N)nc3)nc(N3CCOCC3)n2)C1` [Example 44, propan-2-yl (3S)-3-{[2′-amino-2-(morpholin-4-yl)-4,5′-bipyrimidin-6-yl]amino}-3-(hydroxymethyl)pyrrolidine-1-carboxylate], the Ki was found to be 0.032 nM.
Next, `Cc1ncc(-c2cc(N[C@@]3(CO)CCN(C(=O)OC(C)(C)C)C3)nc(N3CCOCC3)n2)cn1` [Example 126, tert-butyl (3S)-3-(hydroxymethyl)-3-{[2′-methyl-2-(morpholin-4-yl)-4,5′-bipyrimidin-6-yl]amino}pyrrolidine-1-carboxylate]: 1.92 nM; `CC(C)(C)CC(=O)N1CC[C@](CO)(Nc2cc(-c3cnc(N)nc3)nc(N3CCOCC3)n2)C1` [Example 61, 1-[(3S)-3-{[2′-amino-2-(morpholin-4-yl)-4,5′-bipyrimidin-6-yl]amino}-3-(hydroxymethyl)pyrrolidin-1-yl]-3,3-dimethylbutan-1-one]: 0.054 nM; `Cn1ccnc1C(=O)N1CC[C@](CO)(Nc2cc(-c3cnc(N)nc3)nc(N3CCOCC3)n2)C1` [Example 73, [(3S)-3-{[2′-amino-2-(morpholin-4-yl)-4,5′-bipyrimidin-6-yl]amino}-3-(hydroxymethyl)pyrrolidin-1-yl](1-methyl-1H-imidazol-2-yl)methanone]: 0.746 nM.
`CCOC(=O)N1CC[C@](CO)(Nc2nc(-c3cnc(N)nc3)nc(N3CCOCC3)n2)C1` [Example 82, ethyl (3S)-3-{[4-(2-aminopyrimidin-5-yl)-6-(morpholin-4-yl)-1,3,5-triazin-2-yl]amino}-3-(hydroxymethyl)pyrrolidine-1-carboxylate]: the Ki worked out at 0.027 nM.
Next, `Nc1ncc(-c2cc(N[C@@]3(CO)CCCN(C(=O)OCC(F)F)C3)nc(N3CCOCC3)n2)cn1` [Example 141, 2,2-difluoroethyl (3S)-3-{[2′-amino-2-(morpholin-4-yl)-4,5′-bipyrimidin-6-yl]amino}-3-(hydroxymethyl)piperidine-1-carboxylate]: 0.043 nM; `CC(=O)N1CC(CO)(Nc2cc(-c3cnc(N)nc3)nc(N3CCOCC3)n2)C1` [Example 42, 1-[3-{[2′-amino-2-(morpholin-4-yl)-4,5′-bipyrimidin-6-yl]amino}-3-(hydroxymethyl)azetidin-1-yl]ethanone]: 0.651 nM; `COC(=O)N1CCC[C@](CO)(Nc2cc(-c3cnc(N)nc3)nc(N3CCOCC3)n2)C1` [Example 5, methyl (3S)-3-{[2′-amino-2-(morpholin-4-yl)-4,5′-bipyrimidin-6-yl]amino}-3-(hydroxymethyl)piperidine-1-carboxylate]: below 0.018 nM.
